Tests used:
C2hAR57 cells = test: [3H]-thymidine uptake assay, C2hAR57 cells; format: cell-based, mouse; settings: for effect on [3H]-thymidine uptake: 48 hours exposure
Experimental: After 48 hours exposure to the test agents, medium containing 0.1 μCi [^3H]-thymidine (82 Ci/mmol, Amersham, Buckinghamshire, UK) per well was added and incubation was continued for two additional hours at 37° C. The assay was terminated by aspirating the culture medium and washing with ice-cold phosphate buffered saline followed by 5% trichloroacetic acid. The cells where then lysed by applying 0.3 N NaOH (75 μl per well) followed by 0.3 N HCl (75 μl per well) to neutralize the NaOH. The radioactivity in 50-μl aliquots was determined by liquid scintillation counting in 96-well plates (Packard Instrument Corporation) using a TopCount™ Scintillation Counter (Packard Instrument Corporation).

androgen receptor = molecular target: T1, androgen receptor (Homo sapiens, UniProt P10275); settings: read-out: IC50 (known affinities for the androgen receptor); printed beside rank order potency on inhibition of [3H]-thymidine uptake; cited from earlier work
T1 sequence (P10275 1-920): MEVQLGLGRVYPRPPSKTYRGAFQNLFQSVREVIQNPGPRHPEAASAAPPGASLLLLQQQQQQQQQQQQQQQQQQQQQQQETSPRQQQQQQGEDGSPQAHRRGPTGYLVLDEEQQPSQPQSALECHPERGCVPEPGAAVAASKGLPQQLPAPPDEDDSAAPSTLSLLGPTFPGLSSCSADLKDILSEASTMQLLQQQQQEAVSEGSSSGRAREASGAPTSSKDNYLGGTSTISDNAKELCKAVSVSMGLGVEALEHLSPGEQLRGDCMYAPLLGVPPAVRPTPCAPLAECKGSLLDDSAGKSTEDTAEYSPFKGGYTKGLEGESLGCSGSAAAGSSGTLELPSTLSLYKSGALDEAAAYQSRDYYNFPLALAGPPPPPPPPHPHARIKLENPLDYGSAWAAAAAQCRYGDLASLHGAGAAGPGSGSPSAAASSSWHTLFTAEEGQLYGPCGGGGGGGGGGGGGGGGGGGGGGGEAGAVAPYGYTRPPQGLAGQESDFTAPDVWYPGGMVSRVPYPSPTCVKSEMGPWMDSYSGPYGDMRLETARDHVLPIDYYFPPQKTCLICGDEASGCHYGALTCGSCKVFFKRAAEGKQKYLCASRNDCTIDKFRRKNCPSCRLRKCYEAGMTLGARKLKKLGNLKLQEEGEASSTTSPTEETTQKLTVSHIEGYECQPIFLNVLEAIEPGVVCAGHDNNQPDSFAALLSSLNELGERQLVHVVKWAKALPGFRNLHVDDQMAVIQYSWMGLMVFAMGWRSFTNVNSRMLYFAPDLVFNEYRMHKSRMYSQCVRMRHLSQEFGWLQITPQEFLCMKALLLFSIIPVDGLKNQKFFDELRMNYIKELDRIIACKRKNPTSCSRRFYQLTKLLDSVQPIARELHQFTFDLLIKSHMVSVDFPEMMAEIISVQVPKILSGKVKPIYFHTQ

Compound	reversal of the inhibition of [3H]-thymidine uptake by 0.1 nM DHT (C2hAR57 cells; concomitant addition with 0.1 nM DHT)	IC50 (androgen receptor) [nM]	effect on [3H]-thymidine uptake (C2hAR57 cells)
CC(C)(O)C(=O)Nc1ccc([N+](=O)[O-])c(C(F)(F)F)c1 [2-hydroxyflutamide]	completely reversed	–	–
C[C@]12COC(=O)C[C@@H]1CC[C@@H]1[C@@H]2CC[C@@]2(C)[C@H]1CC[C@]2(C)O [oxandrolone]	–	28.4	dose-dependent inhibitory effects
C[C@]12Cc3c[nH]nc3C[C@@H]1CC[C@@H]1[C@@H]2CC[C@@]2(C)[C@H]1CC[C@]2(C)O [stanozolol]	–	–	dose-dependent inhibitory effects
C[C@]12CC[C@H]3[C@@H](CCC4=CC(=O)CC[C@@]43C)[C@@H]1CC[C@@H]2O [testosterone]	–	–	dose-dependent inhibitory effects

Reference: US20030215888A1, “Androgen receptor overexpressing skeletal myoblasts” (Pfizer Inc., priority 2002, published 2003)
